Reference: patent US11020422B2, “Cyclodextrin for the treatment of lysosomal storage diseases” (The United States of America, as represented by the …, priority 2012, dated 2021)
Like-named read-outs stand apart in the source and are kept apart here.

Experiments:
[1] = system: Wolman fibroblasts; experiment: Amplex-Red cholesterol assay in Wolman fibroblasts; format: cell-based, human; details: for cholesterol accumulation: cyclodextrins alone, other lysosomal storage disorders (FIG. 1)
Protocol: (§1) Amplex-Red Cholesterol Assay—Total cholesterol in patient cells was measured by the Amplex-Red Cholesterol Assay Kit (Invitrogen). The unesterified cholesterol was determined using the same kit without the enzyme […]. Esterified cholesterol was determined as the difference between the total and unesterified cholesterol values. The cells were seeded to black, tissue culture-treated 96-well, 384-well or 1536-well plates at 4000, 1000, 300 cells/well in 100, 20 or 5 μl medium by a Multidrop Combi dispenser (Thermo Scientific, Waltham, Mass.) and cultured for 24 hr. The assay plates were added with compound dilution in DMSO solution using a Pintool station (Klaypsys, San Diego, Calif.) and cultured for 3 days. The cells were washed twice manually for 96-well or 384-well plates or using a centrifugation method in which the inverted plates were placed on a stack of paper towel and centrifuged at 800 rpm for 1 min followed by addition of 7 μl/well PBS (added gently with a 45 degree angled liquid dispenser (Klaypsys). The cholesterol assay mixture from the kit was added at 100, 20 or 2.5 μl/well for 96-well, 384-well or 1536-well plates and incubated for 1 hr at 37° C. The resulted fluorescence intensity was measured with excitation of 560 (±10) and emission of 590 (±10) in a fluorescence plate reader (Tecan, Durham, N.C.).

[2] = system: primary NPC fibroblasts; details: primary NPC fibroblasts / LSD fibroblast; reported; cited from earlier work
[3] = system: Wolman fibroblasts; experiment: β-Hexosaminidase (HEXB) release, lysosomal exocytosis; format: cell-based, human; details: for exocytosis: cyclodextrins, wild type and Wolman cells, assay not stated; for lysosomal exocytosis as determined by HEXB secretion: Wolman fibroblasts, FIG. 3
Protocol: Measurement of β-Hexosaminidase (HEXB) Release—Fibroblasts were cultured in 24-well plates at 30,000 cells/well in 0.4 ml medium for one day at 37° C. After being washed twice with the assay buffer (DMEM with 2 mM D-mannose 6-phosphate sodium salt), the cells with 0.4 ml/well the assay buffer were incubated at 37° with 0.2 ml/well compound in assay buffer. […] The rest of assay buffer in the 24-well plate was discarded followed by addition of 0.6 ml 1% Triton-X100 in dH2O to lyse the cells. After incubation at 37° C. for 30 min. 6 μl/well cell lysate were added to the 96-well plate with 24 μl assay buffer followed by 90 μl/well 2.25 mM HEXB substrate, 4-Methylumbelliferyl N-acetyl-β-D-glucosaminide (Sigma-Aldrich, #M2133), in a 25 mM citric acid buffer at pH 4.5. The 96-well plate was then measured in the Tecan fluorescence plate reader (Ex=365±20 nm and Em=460±20 nm) after 1 hr incubation at 37° C. and addition of 100 μl/well stop solution (1 M glycine and 1 M NaOH at pH 10.5).
FIG. 3. […] We measured lysosomal exocytosis in delta-T-treated Wolman fibroblasts by determining the activity of beta-hexosaminidase (HEXB), a lysosomal enzyme, in the extracellular medium.
In brief, the level of lysosomal exocytosis was determined by measuring the level of the lysosomal enzyme HEXB secreted into the culture medium following treatment with drug.

[4] = system: NPC1 skin fibroblasts; experiment: Cholesterol accumulation (Amplex-red, filipin) and enlarged lysosomes (Lysotracker) in NPC1 skin fibroblasts; format: cell-based, human; details: for cholesterol accumulation / ranking order of cholesterol reduction effect: NPC cells
Protocol: as §1

[5] = system: Wolman fibroblasts; experiment: Nile Red staining of neutral lipids in Wolman fibroblasts; details: cultured with compound for 3 days
Protocol: Nile-red Staining—The cells were cultured and treated as described above in 96-well plates. On the experimental day, cells were washed two times with PBS and live-stained with 1 μM Nile-red dye solution (prepared in cell culture medium) at 100 μl/well followed by an incubation at 37° C. for 10 min. After washed twice with PBS, the cells were fixed in 3.2% paraformaldehyde in PBS at 100 μl/well 1 μg/ml Hoechst 33342 (Invitrogen) in PBS and incubation at RT for 30 min. The plate was washed twice with PBS and the images were measured in Incell2000 imaging plate reader with a FTTC filter set (Ex=480±20 nm and Ex=525±36 nm) for the neutral lipids (cholesteryl esters and triglycerides) and a DAPI filter set for Hoechst nuclear staining.
(Nile Red) Cells were cultured in the presence of delta tocopherol, alpha tocopherol and MBCD plus in combination for 3 days and then stained for neutral lipid with Nile red.
Wolman fibroblasts were treated with δ-tocopherol, α-tocopherol, methyl-β-cyclodextrin, or combinations of δ-tocopherol and methyl-β-cyclodextrin or α-tocopherol and methyl-β-cyclodextrin. […] To further characterize the effect of treatment on lipid accumulation, treated fibroblasts were evaluated using a Nile Red assay to measure neutral lipid accumulation. […] The Nile Red staining was visualized by fluorescent microscopy.

[6] = system: NPC1-NSCs; experiment: Amplex-red cholesterol assay in NPC1 neural stem cells; format: cell-based, human
Protocol: as §1
(§2) Induced pluripotent stem cells (IPSCs) from the NPC1 skin fibroblasts were generated and differentiated into neural stem cells (NPC1-NSCs).

[7] = system: NPC1-NSCs; experiment: Filipin and Lysotracker staining in NPC1 neural stem cells; format: cell-based, human; details: fluorescence microscopy, FIG. 12B
Protocol: (§3) On the experimental day, cells were live-stained with 100 μl/well 50 nM LysoTracker-Red DND-99 dye (Invitrogen, #L-7528) in medium at 37° C. for 1 hr followed by plate washing twice with PBS. The plate was then fixed in 100 μl/well 3.2% formaldehyde for 1 hr and washed for two times with PBS. […] After washing twice with PBS, the plates were stored at 4° C. until imaging analysis. DAPI filter set and TRITC filter set in the Incell2000 imaging plate reader were used to visualize Hoechst nuclear staining and LysoTracker staining, respectively.
as §2

[8] = system: fibroblasts derived from patients with lysosomal storage diseases; experiment: LysoTracker dye staining of enlarged lysosomes; format: cell-based, human; details: for concentration needed for significant effect on reduction of enlarged lysosome size: single compound use, skin fibroblasts of nine lysosomal storage diseases
Protocol: as §3
FIG. 5. […] To test this hypothesis we measured the ability of delta-T to decrease acidic/lysosomal compartment size as determined by LysoTracker staining in fibroblasts derived from patients with six other diseases. Lysosomal storage occurs in these fibroblasts consists of ceroid/lipofuscin in Batten (CLN2), globotriaosylceramide in Fabry, ceramide in Farber, sphingomyelin in NPA, partially degraded heparan sulfate in Sanfilippo type B, and GM2 ganglioside in Tay-Sachs (Table S1).
The effect of various cyclodextrins, δ-tocopherol, and combinations of cyclodextrins and δ-tocopherol on lipid accumulation and lysosome size in wild-type and lysosomal storage disease fibroblasts (Wolman, Tay-Sach, Fabry, Farber, and MPSIIIB fibroblasts) was determined using Lysotracker assay. In brief, cells were treated with various combinations and concentrations of drugs followed by staining with the Lyso tracker dye which is a basophilic fluorescent probe that accumulates in acidic compartments, i.e. lysosomes, within the cell.

[9] = system: NPC1, Wolman and other lysosome storage disorder fibroblasts; experiment: Electron microscopy of lysosomal ultrastructure; details: Wolman fibroblasts; FIG. 6
Protocol: Electron Microscopy—Fibroblast cells were seeded in 6-well plates at 150,000 cells/well in 5 ml medium and cultured for 1 day in the presence or absence of compounds. Cells were fixed in 2% glutaraldehyde, 0.1 M cacodylate buffer, pH 7.2 for 1 hr at room temperature and then stored at 4° C. until TEM analysis was performed. The cells were post fixed in 1% osmium tetroxide in the same buffer for 1 hour and en bloc stained with 0.5% uranyl acetate in 0.1 M acetate buffer, pH 4.2. The cells were then dehydrated in graded ethanol solutions (35%, 50%, 70%, 95% and 100%) and infiltrated overnight in epoxy resin (Poly/Bed 812, Polysciences). After adding fresh pure resin the cell plates were cured for 72 h in 55° C. After removing the polystyrene plates, suitable areas for thin sectioning were selected, cut out with a jewelry saw and glued onto empty resin stubs. About 70 nm thin sections were cut on an ultramicrotome (Leica EM UC6) and mounted on naked copper grids. The thin sections were double stained (uranyl acetate and lead citrate), examined in a Hitachi H-7650 transmission electron microscope, and images were taken using an AMT CCD camera.
The effects of δ-tocopherol and methyl-β-cyclodextrin on the ultrastructural pathology of lysosomes in lysosome storage disorder cells were investigated by electron microscopy. In brief, following treatment of wild-type and lysosome storage disorder fibroblasts with δ-tocopherol, methyl-β-cyclodextrin, or δ-tocopherol and methyl-β-cyclodextrin, the fibroblasts were fixed and embedded. Thin sections of the embedded cells were then prepared and the ultrastructural pathology was examined by electron microscopy. […] The effects of δ-tocopherol and/or methyl-β-cyclodextrin on the ultrastructural pathology of other lysosome disorder fibroblasts-Farber (FIGS. 7,8 and 10); Tay-Sachs (FIG. 8); Fabry (FIG. 8); Wolman (FIG. 9); NPA (FIG. 9); Batten (FIG. 9); MSIIB (FIG. 9)—were analyzed by electron microscopy.

[10] = system: mouse model of Niemann Pick Type C (NPC) disease; details: cited from earlier work
[11] = system: NPC cells; details: NPC / NPC1 cells; reported; cited from earlier work
[12] = NPC1-NSCs, FIG. 12A, read-out: IC50, Amplex-red cholesterol assay

OC[C@H]1O[C@@H]2O[C@H]3[C@H](O)[C@@H](O)[C@@H](O[C@H]4[C@H](O)[C@@H](O)[C@@H](O[C@H]5[C@H](O)[C@@H](O)[C@@H](O[C@H]6[C@H](O)[C@@H](O)[C@@H](O[C@H]7[C@H](O)[C@@H](O)[C@@H](O[C@H]8[C@H](O)[C@@H](O)[C@@H](O[C@H]1[C@H](O)[C@H]2O)O[C@@H]8CO)O[C@@H]7CO)O[C@@H]6CO)O[C@@H]5CO)O[C@@H]4CO)O[C@@H]3CO [beta-CD, β-cyclodextrin]
cholesterol accumulation [1]: can reduce cholesterol accumulation
lysosomal exocytosis [2]: increased exocytosis
exocytosis [3]: enhance exocytosis
cholesterol accumulation [4]: can reduce cholesterol accumulation

COC[C@H]1O[C@@H]2O[C@H]3[C@H](O)[C@@H](OC)[C@@H](O[C@H]4[C@H](O)[C@@H](OC)[C@@H](O[C@H]5[C@H](O)[C@@H](OC)[C@@H](O[C@H]6[C@H](O)[C@@H](OC)[C@@H](O[C@H]7[C@H](O)[C@@H](OC)[C@@H](O[C@H]8[C@H](O)[C@@H](OC)[C@@H](O[C@H]1[C@H](O)[C@H]2OC)O[C@@H]8COC)O[C@@H]7COC)O[C@@H]6COC)O[C@@H]5COC)O[C@@H]4COC)O[C@@H]3COC [MBCD, Heptakis(2,6-di-o-methyl)-beta-cyclodextrin]
neutral lipid accumulation (Nile red) ([5]; FIG. 2): reduces accumulation of neutral lipids
neutral lipid accumulation (Nile red) ([5]; FIG. 2, listed as methyl-β-cyclodextrin): significantly reduced
reduction in total cholesterol ([1]; Wolman fibroblasts, FIGS. 1A-1C): significant reduction
reduction in free cholesterol ([1]; Wolman fibroblasts, FIGS. 1D-1F): significant reduction
cholesterol accumulation [1]: most potent
IC50 [6, 12]: 10 µM
reduction of cholesterol accumulation (filipin staining) and enlarged lysosomes (Lysotracker staining) [7]: better than those of delta-tocopherol
LysoTracker staining ([8]; NPC1 and Wolman fibroblasts, 40 μM delta-T or 300 μM MBCD): significantly reduced LysoTracker staining
lipid accumulation and lysosome size (Lysotracker) ([8]; Wolman, Tay-Sach, Fabry, Farber, MPSIIIB fibroblasts, FIGS. 5A-5D): reduced lipid accumulation and lysosome size
concentration needed for significant effect on reduction of enlarged lysosome size [8]: 300 µM
abnormal lysosomal structures (electron microscopy) [9]: significantly reduced
cholesterol accumulation and neuronal cell loss [10]: reduced cholesterol accumulation and neuronal cell loss
lysosomal exocytosis as determined by HEXB secretion [3]: significant increases in lysosomal exocytosis
reduction of cholesterol accumulation and enlarged lysosomes ([4]; NPC1 skin fibroblasts, 160 μM MBCD alone, 50 μM HBPCD or 20 μM MBCD with 10 μM delta-tocopherol, FIG. 11): almost completely reversed the phenotype
ranking order of cholesterol reduction effect [4]: MBCD>alpha-CD>gamma-CD
potency of MBCD relative to HBPCD ([4]; reduction of cholesterol accumulation and enlarged lysosome size in NPC1 fibroblasts): over 30 fold

(2-Hydroxypropyl)-beta-cyclodextrin [HBPCD]
potency in NPC1 neuronal cells compared to NPC1 skin fibroblasts [6]: much more potent
cholesterol accumulation, combination therapy experiment ([6]; 50 μM HBPCD, 10 μM delta-tocopherol, alone or combined, compared with 5 mM HBPCD): did not show the significant cholesterol reduction effect
IC50 [6, 12]: 12 µM
ratio of IC50 HBPCD to IC50 delta-tocopherol ([6]; human NPC1 neural stem cells): 3.3 fold
IC50 ([6]; human NPC1 neural stem cells, values given under dosage recommendations, read-out: IC50 on reduction of cholesterol accumulation, Amplex-red cholesterol assay): 50 µM
reduction of cholesterol accumulation (filipin staining) and enlarged lysosomes (Lysotracker staining) [7]: better than those of delta-tocopherol
concentration needed for significant effect on reduction of enlarged lysosome size [8]: 8000 µM
cholesterol accumulation and neuronal cell loss [10]: reduced cholesterol accumulation and neuronal cell loss
lysosomal exocytosis [2]: promote a calcium-dependent lysosomal exocytosis
concentration needed for reduction of cholesterol accumulation and enlarged lysosomes ([4]; NPC1 skin fibroblasts, single use, FIG. 11A): millimolars

OC[C@H]1O[C@@H]2O[C@H]3[C@H](O)[C@@H](O)[C@@H](O[C@H]4[C@H](O)[C@@H](O)[C@@H](O[C@H]5[C@H](O)[C@@H](O)[C@@H](O[C@H]6[C@H](O)[C@@H](O)[C@@H](O[C@H]7[C@H](O)[C@@H](O)[C@@H](O[C@H]1[C@H](O)[C@H]2O)O[C@@H]7CO)O[C@@H]6CO)O[C@@H]5CO)O[C@@H]4CO)O[C@@H]3CO [alpha-CD, α-cyclodextrin]
cholesterol accumulation [1]: can reduce cholesterol accumulation
exocytosis [3]: enhance exocytosis
cholesterol accumulation [4]: can reduce cholesterol accumulation
ranking order of cholesterol reduction effect [4]: MBCD>alpha-CD>gamma-CD

COc1cc(/C=C/C(=O)CC(=O)/C=C/c2ccc(O)c(OC)c2)ccc1O [curcumin]
cholesterol efflux, accumulation or storage [11]: reduce cholesterol storage

OC[C@H]1O[C@@H]2O[C@H]3[C@H](O)[C@@H](O)[C@@H](O[C@H]4[C@H](O)[C@@H](O)[C@@H](O[C@H]5[C@H](O)[C@@H](O)[C@@H](O[C@H]6[C@H](O)[C@@H](O)[C@@H](O[C@H]7[C@H](O)[C@@H](O)[C@@H](O[C@H]8[C@H](O)[C@@H](O)[C@@H](O[C@H]9[C@H](O)[C@@H](O)[C@@H](O[C@H]1[C@H](O)[C@H]2O)O[C@@H]9CO)O[C@@H]8CO)O[C@@H]7CO)O[C@@H]6CO)O[C@@H]5CO)O[C@@H]4CO)O[C@@H]3CO [gamma-CD, γ-cyclodextrin]
cholesterol accumulation [1]: can reduce cholesterol accumulation
exocytosis [3]: enhance exocytosis
cholesterol accumulation [4]: can reduce cholesterol accumulation
ranking order of cholesterol reduction effect [4]: MBCD>alpha-CD>gamma-CD

Cc1c(C)c2c(c(C)c1O)CC[C@@](C)(CCC[C@H](C)CCC[C@H](C)CCCC(C)C)O2 [α-tocopherol]
neutral lipid accumulation (Nile red) ([5]; FIG. 2): failed to show any effect
neutral lipid accumulation (Nile red) ([5]; FIG. 2, listed as Alpha Tocopherol): not as potent
lysosomal exocytosis as determined by HEXB secretion [3]: significant increases in lysosomal exocytosis
